According to ChEMBL document CHEMBL1641539 (Bioorg Med Chem Lett, 2011):

What was measured:
[1] = target: Mitogen-activated protein kinase 9 (Homo sapiens, UniProt P45984); experiment: Inhibition of recombinant JNK2 after 60 mins by TR-FRET assay
[2] = target: Mitogen-activated protein kinase 8 (Homo sapiens, UniProt P45983); experiment: Inhibition of recombinant JNK1 after 60 mins by TR-FRET assay
[3] = target: Mitogen-activated protein kinase 1 (Homo sapiens, UniProt P28482); experiment: Inhibition of recombinant ERK2 after 60 mins by TR-FRET assay
[4] = target: Mitogen-activated protein kinase 10 (Homo sapiens, UniProt P53779); experiment: Inhibition of recombinant JNK3 after 60 mins by TR-FRET assay
[5] = target: Mitogen-activated protein kinase 14 (Homo sapiens, UniProt Q16539); experiment: Inhibition of recombinant p38alpha after 60 mins by TR-FRET assay
[6] = Apparent permeability of the compound from apical to basolateral direction in MDCK2 cells at 5 uM after 120 mins; assay type: ADME, cell-based, Canis lupus familiaris, MDCK-II; settings: dog, MDCK
[7] = Oxidative metabolic stability in human liver microsomes assessed as compound remaining at 2 uM after 30 mins; assay type: ADME, Microsome; settings: read-out: Stability
[8] = Oxidative metabolic stability in mouse liver microsomes assessed as compound remaining at 2 uM after 30 mins; assay type: ADME, Microsome; settings: read-out: Stability
[9] = Efflux ratio, ratio of permeability from apical to basolateral in MDCK2 cells over expressing MDR1 in presence of P-gp inhibitor to permeability from apical to basolateral in MDCK2 cells over expressing MDR1 in absence of P-gp inhibitor at 5 uM after 120 mins; assay type: ADME, cell-based, Canis lupus familiaris; settings: dog, mdck-ii, 2 h

Chain of Mitogen-activated protein kinase 10 (P53779 whole entry): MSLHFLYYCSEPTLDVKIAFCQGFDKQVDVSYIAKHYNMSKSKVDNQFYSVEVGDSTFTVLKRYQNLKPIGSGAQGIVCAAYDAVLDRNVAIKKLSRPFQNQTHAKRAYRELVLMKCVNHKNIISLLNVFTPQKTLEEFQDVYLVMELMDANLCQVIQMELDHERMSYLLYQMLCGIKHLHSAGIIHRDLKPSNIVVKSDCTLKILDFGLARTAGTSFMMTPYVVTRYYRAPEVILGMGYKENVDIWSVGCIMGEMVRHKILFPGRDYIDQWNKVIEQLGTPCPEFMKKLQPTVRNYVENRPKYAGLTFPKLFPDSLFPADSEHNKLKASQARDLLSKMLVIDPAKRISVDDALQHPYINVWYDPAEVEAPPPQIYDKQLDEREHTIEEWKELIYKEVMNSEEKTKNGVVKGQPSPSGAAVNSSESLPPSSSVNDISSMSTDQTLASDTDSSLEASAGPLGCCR
Chain of Mitogen-activated protein kinase 9 (P45984 whole entry): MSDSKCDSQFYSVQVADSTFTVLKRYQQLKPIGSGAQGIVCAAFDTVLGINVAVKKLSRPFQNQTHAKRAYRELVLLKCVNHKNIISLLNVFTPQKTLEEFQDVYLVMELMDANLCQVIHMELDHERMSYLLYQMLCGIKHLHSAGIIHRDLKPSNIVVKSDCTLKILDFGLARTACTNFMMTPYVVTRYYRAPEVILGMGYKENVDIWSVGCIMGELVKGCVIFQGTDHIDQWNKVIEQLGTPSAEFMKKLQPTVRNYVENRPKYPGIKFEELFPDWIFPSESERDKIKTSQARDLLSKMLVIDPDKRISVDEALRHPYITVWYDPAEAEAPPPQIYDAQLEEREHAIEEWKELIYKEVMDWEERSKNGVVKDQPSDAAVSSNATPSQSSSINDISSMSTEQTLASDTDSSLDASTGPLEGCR
Chain of Mitogen-activated protein kinase 14 (Q16539 whole entry): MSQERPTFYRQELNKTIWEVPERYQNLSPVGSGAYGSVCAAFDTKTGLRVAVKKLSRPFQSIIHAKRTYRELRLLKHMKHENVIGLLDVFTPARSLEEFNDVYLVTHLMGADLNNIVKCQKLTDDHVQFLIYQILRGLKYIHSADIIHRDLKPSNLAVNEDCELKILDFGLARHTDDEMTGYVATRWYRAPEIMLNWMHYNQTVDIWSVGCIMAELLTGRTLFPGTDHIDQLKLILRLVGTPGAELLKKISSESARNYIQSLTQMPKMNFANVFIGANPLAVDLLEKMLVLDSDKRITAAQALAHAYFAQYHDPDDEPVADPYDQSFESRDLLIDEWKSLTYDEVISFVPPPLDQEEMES
Chain of Mitogen-activated protein kinase 8 (P45983 whole entry): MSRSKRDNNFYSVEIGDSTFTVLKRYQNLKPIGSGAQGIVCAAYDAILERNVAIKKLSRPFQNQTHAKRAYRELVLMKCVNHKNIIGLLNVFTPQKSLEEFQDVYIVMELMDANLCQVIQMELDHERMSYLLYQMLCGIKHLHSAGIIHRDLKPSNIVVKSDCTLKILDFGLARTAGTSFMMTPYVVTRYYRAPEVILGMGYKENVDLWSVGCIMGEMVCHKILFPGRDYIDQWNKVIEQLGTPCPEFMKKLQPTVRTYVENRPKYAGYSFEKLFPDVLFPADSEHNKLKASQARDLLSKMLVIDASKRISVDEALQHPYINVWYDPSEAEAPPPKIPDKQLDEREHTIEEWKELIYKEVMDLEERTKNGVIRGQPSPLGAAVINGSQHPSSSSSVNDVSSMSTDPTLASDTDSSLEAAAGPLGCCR
Chain of Mitogen-activated protein kinase 1 (P28482 whole entry): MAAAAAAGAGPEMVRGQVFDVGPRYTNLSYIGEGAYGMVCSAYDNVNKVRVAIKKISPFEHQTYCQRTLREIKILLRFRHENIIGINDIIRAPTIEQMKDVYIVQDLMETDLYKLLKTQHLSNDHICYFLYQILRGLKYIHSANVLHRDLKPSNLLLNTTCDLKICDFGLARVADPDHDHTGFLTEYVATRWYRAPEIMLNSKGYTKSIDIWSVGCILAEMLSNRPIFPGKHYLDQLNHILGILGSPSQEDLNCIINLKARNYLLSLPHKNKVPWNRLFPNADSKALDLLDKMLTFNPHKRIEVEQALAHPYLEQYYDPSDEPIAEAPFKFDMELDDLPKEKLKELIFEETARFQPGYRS

| SMILES | IC50 [1] | IC50 [2] | IC50 [3] | IC50 [4] | IC50 [5] | Papp A→B at 2 h, 5 µM [6] | remaining at 0.5 h, 2 µM [7] | remaining at 0.5 h, 2 µM [8] | Ratio [9] |
| --- | --- | --- | --- | --- | --- | --- | --- | --- | --- |
| C[C@H](Nc1cc(-c2n[nH]c(=O)n2-c2ccc3ccccc3c2)ccn1)c1ccccc1 | > 5 µM | > 5 µM | > 5 µM | 3.9 µM | > 5 µM |  |  |  |  |
| CCN1CCC(n2nc(-c3ccnc(NC4CCOCC4)c3)n(-c3ccc4ccccc4c3)c2=O)CC1 | 2 µM | > 5 µM |  | 0.28 µM |  |  |  |  |  |
| O=c1[nH]nc(-c2ccnc(Nc3nccs3)c2)n1-c1ccc2ccccc2c1 | 0.65 µM | > 50 µM | > 50 µM | 0.21 µM | > 50 µM |  |  |  |  |
| O=c1[nH]nc(-c2ccnc(Nc3ccccc3)c2)n1-c1ccc2ccccc2c1 | 0.47 µM | 5.7 µM | > 50 µM | 0.061 µM | > 50 µM |  |  |  |  |
| CC(=O)Nc1cc(-c2n[nH]c(=O)n2-c2ccc3ccccc3c2)ccn1 | 1.5 µM | 7.2 µM | > 50 µM | 0.41 µM | > 50 µM |  |  |  |  |
| O=c1[nH]nc(-c2ccncc2)n1-c1ccc2ccccc2c1 | 32 µM | > 50 µM | > 50 µM | 16 µM | > 50 µM |  |  |  |  |
| O=c1n(C2CCNCC2)nc(-c2ccnc(NC3CCOCC3)c2)n1-c1ccc2ccccc2c1 | 0.53 µM | 4.5 µM | > 5 µM | 0.16 µM | > 50 µM |  |  |  |  |
| O=c1[nH]nc(-c2ccnc(NC3CCOCC3)c2)n1-c1ccc2cccc(F)c2c1 | 0.38 µM | > 0.5 µM | > 50 µM | 0.054 µM | > 50 µM |  |  |  |  |
| Nc1cccc2ccc(-n3c(-c4ccnc(NC5CCOCC5)c4)n[nH]c3=O)cc12 | 0.57 µM | 2.6 µM | > 50 µM | 0.094 µM | > 50 µM |  |  |  |  |
| O=C(Nc1cc(-c2n[nH]c(=O)n2-c2ccc3ccccc3c2)ccn1)C1CC1 | 0.44 µM | 4.6 µM | > 50 µM | 0.12 µM | > 50 µM |  |  |  |  |
| Nc1ccc2cc(-n3c(-c4ccnc(NC5CCOCC5)c4)n[nH]c3=O)ccc2c1 | 5.3 µM | 1.7 µM | > 50 µM | 0.95 µM | > 50 µM |  |  |  |  |
| O=c1n(C2CCOC2)nc(-c2ccnc(NC3CCOCC3)c2)n1-c1ccc2ccccc2c1 (stereo not given) | 0.32 µM | 3.8 µM | > 50 µM | 0.092 µM | > 50 µM | 21.8 ×10⁻⁶ cm/s | 27% | 1.6% | 1.6 |
| O=c1[nH]nc(-c2ccnc(NC3CCOCC3)c2)n1-c1ccc2cc(Br)ccc2c1 | 0.78 µM | 4.2 µM | > 50 µM | 0.43 µM | > 50 µM |  |  |  |  |
| O=c1n(-c2ccccn2)nc(-c2ccnc(NC3CCOCC3)c2)n1-c1ccc2ccccc2c1 | 0.15 µM | 1.4 µM | > 50 µM | 0.1 µM | > 50 µM | 5.1 ×10⁻⁶ cm/s | 59% | 1.5% | 1.5 |
| O=c1[nH]nc(-c2ccnc(NC3CCC3)c2)n1-c1ccc2ccccc2c1 | 0.22 µM | 1.8 µM | > 50 µM | 0.07 µM | > 50 µM |  |  |  |  |

Second part, the compound after the results:

| IC50 [1] | IC50 [2] | IC50 [3] | IC50 [4] | IC50 [5] | Papp A→B at 2 h, 5 µM [6] | remaining at 0.5 h, 2 µM [7] | remaining at 0.5 h, 2 µM [8] | Ratio [9] | SMILES |
| --- | --- | --- | --- | --- | --- | --- | --- | --- | --- |
| 0.15 µM | 0.11 µM |  | 0.014 µM |  |  |  |  |  | O=c1[nH]nc(-c2ccnc(NC3CCOCC3)c2)n1-c1ccc2cccc(Cl)c2c1 |
| 0.058 µM | 0.36 µM | > 5 µM | 0.024 µM | > 50 µM |  |  |  |  | COC(=O)N1CCC(n2nc(-c3ccnc(NC4CCOCC4)c3)n(-c3ccc4ccccc4c3)c2=O)CC1 |
| 0.39 µM | 3.9 µM | > 50 µM | 0.13 µM | > 50 µM |  |  |  |  | O=c1[nH]nc(-c2ccnc(NC3CC3)c2)n1-c1ccc2ccccc2c1 |
| 0.061 µM | 0.42 µM | > 50 µM | 0.022 µM | > 50 µM |  |  |  |  | O=c1n(CC2CCOCC2)nc(-c2ccnc(NC3CCCCC3)c2)n1-c1ccc2ccccc2c1 |
| 0.95 µM | 3.3 µM | 14 µM | 0.25 µM | > 50 µM |  |  |  |  | O=c1[nH]nc(-c2ccnc(Nc3cccnc3)c2)n1-c1ccc2ccccc2c1 |
| 0.19 µM | 0.74 µM | > 50 µM | 0.07 µM | > 50 µM | 7.3 ×10⁻⁶ cm/s | 88% | 100% |  | O=c1[nH]nc(-c2ccnc(NC3CCOCC3)c2)n1-c1ccc2cc(F)ccc2c1 |
| 0.17 µM | 0.9 µM |  | 0.036 µM |  |  |  |  |  | O=c1n(C2CCN(CC(F)(F)F)CC2)nc(-c2ccnc(NC3CCOCC3)c2)n1-c1ccc2ccccc2c1 |
| 0.35 µM | > 50 µM | > 50 µM | 0.13 µM | > 50 µM |  |  |  |  | O=c1[nH]nc(-c2ccnc(NC3CCCC3)c2)n1-c1ccc2ccccc2c1 |
| 0.11 µM | 2.2 µM | > 50 µM | 0.04 µM | > 50 µM |  |  |  |  | O=c1[nH]nc(-c2ccnc(Nc3ccccn3)c2)n1-c1ccc2ccccc2c1 |
| 4.4 µM | > 50 µM | > 50 µM | 0.59 µM | > 50 µM |  |  |  |  | O=C(Nc1cc(-c2n[nH]c(=O)n2-c2ccc3ccccc3c2)ccn1)c1ccccc1 |
